Measured values published in patent US20230150986A1, “ANTAGONISTS OF THE MUSCARINIC ACETYLCHOLINE RECEPTOR M4” (Vanderbilt University, priority 2019, published 2023).
Like-named read-outs stand apart in the source and are kept apart here.

What was measured:
Human M4 = target: T1, Human M4 (Homo sapiens, UniProt P08173); experiment: mAChR M4 cell-based functional assay (calcium flux, decrease of EC80 acetylcholine response); conditions: for Human M4 Emin: % ACh maximum at 30 μM; for IC50: CHO-K1 cells with human M4 and Gqi5, EC80 acetylcholine
T1 construct: Human or rat M4 cDNA, along with the chimeric G protein Gq,5, were transfected into Chinese hamster ovary (CHO-K1) cells; expressed in transfected cells; host or cells: CHO-K1 (M4/Gqi5/CHO)
T1 sequence (P08173 1-479): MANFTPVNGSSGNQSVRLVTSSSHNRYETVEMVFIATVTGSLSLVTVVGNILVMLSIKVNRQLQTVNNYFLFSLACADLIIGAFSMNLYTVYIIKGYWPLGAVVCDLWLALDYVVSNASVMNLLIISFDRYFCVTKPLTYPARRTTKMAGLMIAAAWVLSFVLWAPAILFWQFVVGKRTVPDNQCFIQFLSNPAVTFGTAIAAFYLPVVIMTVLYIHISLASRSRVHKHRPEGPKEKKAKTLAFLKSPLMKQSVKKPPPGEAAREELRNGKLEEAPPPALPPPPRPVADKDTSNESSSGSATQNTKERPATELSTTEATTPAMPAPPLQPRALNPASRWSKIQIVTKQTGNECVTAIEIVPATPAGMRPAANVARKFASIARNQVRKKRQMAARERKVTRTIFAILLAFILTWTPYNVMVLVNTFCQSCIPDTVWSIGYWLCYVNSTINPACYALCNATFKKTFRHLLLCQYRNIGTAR
Summary of the method: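 CHO-K1 cells stably co-expressing M4 with chimeric Gqi5, loaded with Fluo-4 AM for 50 min at 37 °C; compounds added as 10-point 1:3 curves, then acetylcholine at EC20 (143 s) and EC80 (268 s). Calcium read by FDSS fluorescence ratio; IC50 from four-parameter fit of decrease in EC80 acetylcholine response.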

P-gp = target: T2, P-gp (Homo sapiens, UniProt P08183); experiment: P-gp efflux in MDR1-MDCK cell monolayers; type: in vitro ADME; conditions: dog, pH 7.4, MDCK-MDR1, 5 μM
T2 construct: expressed in transfected cells; host or cells: MDR1-MDCK
T2 sequence (P08183 whole entry): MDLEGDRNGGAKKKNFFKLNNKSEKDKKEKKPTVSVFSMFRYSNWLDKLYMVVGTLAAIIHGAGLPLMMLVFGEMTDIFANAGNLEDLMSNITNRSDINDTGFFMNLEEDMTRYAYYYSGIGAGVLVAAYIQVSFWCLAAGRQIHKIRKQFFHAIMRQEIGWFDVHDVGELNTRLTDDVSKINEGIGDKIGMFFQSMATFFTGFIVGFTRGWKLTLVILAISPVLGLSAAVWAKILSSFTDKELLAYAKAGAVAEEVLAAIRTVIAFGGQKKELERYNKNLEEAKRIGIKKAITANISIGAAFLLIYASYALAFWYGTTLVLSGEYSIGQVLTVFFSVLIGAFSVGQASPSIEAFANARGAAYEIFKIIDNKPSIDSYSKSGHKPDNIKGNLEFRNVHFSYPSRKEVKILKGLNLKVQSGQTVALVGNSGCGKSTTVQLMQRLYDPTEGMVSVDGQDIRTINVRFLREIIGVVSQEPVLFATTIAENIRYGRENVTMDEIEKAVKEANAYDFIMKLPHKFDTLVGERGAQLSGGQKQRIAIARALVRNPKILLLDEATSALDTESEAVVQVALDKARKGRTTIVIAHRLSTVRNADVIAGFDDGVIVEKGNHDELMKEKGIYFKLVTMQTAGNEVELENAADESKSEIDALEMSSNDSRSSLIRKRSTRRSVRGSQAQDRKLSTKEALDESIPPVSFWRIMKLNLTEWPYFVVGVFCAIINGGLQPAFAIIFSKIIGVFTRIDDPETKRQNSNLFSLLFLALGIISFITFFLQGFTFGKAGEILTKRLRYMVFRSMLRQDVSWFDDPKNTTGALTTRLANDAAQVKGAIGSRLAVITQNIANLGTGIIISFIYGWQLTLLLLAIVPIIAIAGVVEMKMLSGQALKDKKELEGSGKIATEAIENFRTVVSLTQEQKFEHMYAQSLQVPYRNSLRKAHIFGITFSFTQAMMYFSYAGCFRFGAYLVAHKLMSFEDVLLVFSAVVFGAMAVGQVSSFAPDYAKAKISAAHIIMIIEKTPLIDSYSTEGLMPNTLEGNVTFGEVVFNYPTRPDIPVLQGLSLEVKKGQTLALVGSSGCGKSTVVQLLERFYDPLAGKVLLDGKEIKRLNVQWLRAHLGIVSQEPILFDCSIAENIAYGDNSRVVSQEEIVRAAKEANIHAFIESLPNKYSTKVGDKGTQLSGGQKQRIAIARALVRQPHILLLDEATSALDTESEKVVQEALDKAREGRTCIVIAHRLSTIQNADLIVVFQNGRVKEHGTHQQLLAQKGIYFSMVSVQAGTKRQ
Description: MDR1-MDCK cell monolayers were grown to confluence on collagen-coated, microporous membranes in 12-well assay plates. The permeability assay buffer was Hanks' balanced salt solution containing 10 mM HEPES and 15 mM glucose at a pH of 7.4. The buffer in the receiver chamber also contained 1% bovine serum albumin. The dosing solution concentration was 5 μM of test article in the assay buffer. Cell monolayers were dosed on the apical side (A- to -B) or basolateral side (B- to -A) and incubated at 37° C. with 5% CO2 in a humidified incubator. Samples were taken from the donor and receiver chambers at 120 minutes Each determination was performed in duplicate. The flux of lucifer yellow was also measured post-experimentally for each monolayer to ensure no damage was inflicted to the cell monolayers during the flux period. All samples were assayed by LC-MS/MS using electrospray ionization.

cytochrome P450 2C9 = target: T3, cytochrome P450 2C9 (Homo sapiens, UniProt P11712); experiment: Cytochrome P450 cocktail inhibition assay, 2C9 (diclofenac); type: in vitro ADME; conditions: human liver microsomes 0.1 mg/mL; read-out: CYP Inhibition (2C9)
T3 construct: human liver microsomes (HLM; 0.1 mg/mL); from tissue; host or cells: human liver microsomes
T3 sequence (P11712 whole entry): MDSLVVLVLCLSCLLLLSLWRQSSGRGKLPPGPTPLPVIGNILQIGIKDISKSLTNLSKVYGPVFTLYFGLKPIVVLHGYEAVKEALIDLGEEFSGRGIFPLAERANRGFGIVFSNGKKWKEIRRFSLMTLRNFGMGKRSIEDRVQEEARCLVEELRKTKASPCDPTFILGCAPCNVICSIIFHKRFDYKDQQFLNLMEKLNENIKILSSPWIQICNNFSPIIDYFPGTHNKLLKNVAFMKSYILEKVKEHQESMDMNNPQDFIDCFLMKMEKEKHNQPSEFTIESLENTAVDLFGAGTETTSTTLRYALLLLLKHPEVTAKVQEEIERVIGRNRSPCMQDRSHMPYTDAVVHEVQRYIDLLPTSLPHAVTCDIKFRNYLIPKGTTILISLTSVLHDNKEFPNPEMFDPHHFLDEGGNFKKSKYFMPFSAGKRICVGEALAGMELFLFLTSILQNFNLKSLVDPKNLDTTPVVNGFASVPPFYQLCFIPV
Description: (§1) Solutions of substrates for cytochrome P450 enzymes (1A2: Phenacetin, 10 μM; 2C9: Diclofenac, 5 μM; 2D6: Dextromethorphan, 5 μM; 3A4: Midazolam, 2 μM; as a mixture), test compound (VU6028418; multiple concentrations), and the positive control for pan-P450 inhibition (miconazole; multiple concentrations) were prepared. A reaction mixture of assay buffer (100 mM Kpi at pH 7.4), human liver microsomes (HLM; 0.1 mg/mL), and the substrate mixture were aliquoted into a 96-deepwell plate. The test compound and control were then added to the plate such that the final concentration of test compound ranged from 0.1-30 μM (two replicates per concentration). The assay plate was vortexed (briefly) and pre-incubated at 37° C. in an orbital shaker for 15 minutes. The reaction was initiated by addition of NADPH (1 mM, final concentration) and continued for 8 min before it was quenched by acetonitrile (2× volume) containing an LCMS internal standard (carbamazepine, 50 nM). The plate was then centrifuged (4000 rcf, 4° C., 10 min), and the resulting supernatant was diluted with water (1× volume) for LC-MS/MS. Assay samples were analyzed via electrospray ionization on an AB Sciex API-4000 (Foster City, Calif.) triple-quadrupole mass spectrometer coupled to Agilent Technologies 1290 Infinity series pumps (Santa Clara, Calif.), and a Leap Technologies CTC PAL auto -sampler (Carrboro, NC). Analytes were separated by gradient elution on a Phenomenex Kinetex (C18 2.1×50 mm 5 μm) column (Torrance, Calif.) thermostated at 40° C. The HPLC mobile phase A was 0.1% formic acid in water (pH unadjusted), and the mobile phase B was 0.1% formic acid in acetonitrile (pH unadjusted). […] The total run time was 2.5 min and the HPLC flow rate was 0.5 mL/min. The source temperature was set at 500° C. and mass spectral analyses were performed using multiple reaction monitoring (MRM) with mass transitions specific to each substrate's metabolite utilizing a Turbo-Ionspray® source in positive ionization mode (5.0 kV spray voltage). The test compound and control IC50 values for each enzyme were obtained by quantitating the inhibition of metabolite formation for each substrate. A 0 μM test compound (or control) conditions represented 100% enzymatic activity, and the effect of increasing test compound concentrations on enzymatic activity was then calculated from the % of control activity. Inhibition curves were fitted using XLfit 5.2.2 (four-parameter logistic model, equation 201) in order to calculate the concentration that produced half-maximal inhibition (IC50) of each enzyme.

cytochrome P450 2D6 = target: T4, cytochrome P450 2D6 (Homo sapiens, UniProt P10635); experiment: Cytochrome P450 cocktail inhibition assay, 2D6 (dextromethorphan); type: in vitro ADME; conditions: human liver microsomes 0.1 mg/mL; read-out: CYP Inhibition (2D6)
T4 construct: human liver microsomes (HLM; 0.1 mg/mL); from tissue; host or cells: human liver microsomes
T4 sequence (P10635 whole entry): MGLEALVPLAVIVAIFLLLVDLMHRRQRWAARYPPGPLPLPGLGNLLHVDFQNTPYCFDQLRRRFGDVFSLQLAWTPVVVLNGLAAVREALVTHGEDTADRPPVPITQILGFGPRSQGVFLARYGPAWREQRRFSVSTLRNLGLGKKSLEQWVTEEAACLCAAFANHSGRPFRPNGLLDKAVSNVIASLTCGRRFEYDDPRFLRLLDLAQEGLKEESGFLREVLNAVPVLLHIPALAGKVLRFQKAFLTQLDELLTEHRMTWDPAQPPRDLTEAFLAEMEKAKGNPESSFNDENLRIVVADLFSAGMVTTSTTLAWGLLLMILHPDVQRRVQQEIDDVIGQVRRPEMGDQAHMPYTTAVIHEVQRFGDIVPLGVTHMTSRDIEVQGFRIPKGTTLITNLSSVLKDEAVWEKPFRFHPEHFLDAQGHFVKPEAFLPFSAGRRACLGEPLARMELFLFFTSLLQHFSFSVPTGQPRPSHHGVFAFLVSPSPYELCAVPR
Description: as §1

cytochrome P450 1A2 = target: T5, cytochrome P450 1A2 (Homo sapiens, UniProt P05177); experiment: Cytochrome P450 cocktail inhibition assay, 1A2 (phenacetin); type: in vitro ADME; conditions: human liver microsomes 0.1 mg/mL; read-out: CYP Inhibition (1A2)
T5 construct: human liver microsomes (HLM; 0.1 mg/mL); from tissue; host or cells: human liver microsomes
T5 sequence (P05177 1-516): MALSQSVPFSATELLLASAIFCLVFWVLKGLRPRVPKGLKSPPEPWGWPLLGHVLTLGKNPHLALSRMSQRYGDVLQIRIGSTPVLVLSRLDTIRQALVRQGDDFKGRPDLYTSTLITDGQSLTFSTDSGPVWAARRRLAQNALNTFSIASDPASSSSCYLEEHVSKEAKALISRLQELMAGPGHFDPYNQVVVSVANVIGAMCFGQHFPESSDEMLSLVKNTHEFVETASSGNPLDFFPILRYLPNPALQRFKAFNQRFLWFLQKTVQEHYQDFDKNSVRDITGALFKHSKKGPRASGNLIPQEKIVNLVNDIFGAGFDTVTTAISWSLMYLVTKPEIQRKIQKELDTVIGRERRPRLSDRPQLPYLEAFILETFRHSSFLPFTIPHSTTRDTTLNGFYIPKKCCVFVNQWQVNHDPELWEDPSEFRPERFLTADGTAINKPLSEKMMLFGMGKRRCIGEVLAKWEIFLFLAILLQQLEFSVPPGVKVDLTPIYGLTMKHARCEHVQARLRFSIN
Description: as §1

cytochrome P450 3A4 = target: T6, cytochrome P450 3A4 (Homo sapiens, UniProt P08684); experiment: Cytochrome P450 cocktail inhibition assay, 3A4 (midazolam); type: in vitro ADME; conditions: human liver microsomes 0.1 mg/mL; read-out: CYP Inhibition (3A4)
T6 construct: human liver microsomes (HLM; 0.1 mg/mL); from tissue; host or cells: human liver microsomes
T6 sequence (P08684 whole entry): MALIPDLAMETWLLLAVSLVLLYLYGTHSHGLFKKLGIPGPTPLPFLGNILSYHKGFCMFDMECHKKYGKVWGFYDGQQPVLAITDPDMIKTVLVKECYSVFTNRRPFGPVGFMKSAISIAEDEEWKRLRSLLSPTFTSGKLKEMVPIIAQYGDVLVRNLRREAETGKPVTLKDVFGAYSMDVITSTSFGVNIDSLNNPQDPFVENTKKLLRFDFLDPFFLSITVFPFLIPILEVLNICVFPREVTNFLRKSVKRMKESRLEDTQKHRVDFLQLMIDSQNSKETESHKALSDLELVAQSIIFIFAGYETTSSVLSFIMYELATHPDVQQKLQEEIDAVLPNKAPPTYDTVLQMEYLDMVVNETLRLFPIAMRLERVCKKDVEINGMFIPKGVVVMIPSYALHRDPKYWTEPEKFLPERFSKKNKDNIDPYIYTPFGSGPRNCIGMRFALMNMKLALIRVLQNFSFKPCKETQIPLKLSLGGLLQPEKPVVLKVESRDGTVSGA
Description: as §1

mice = conditions: cited from earlier work

With `CC1(C)CC(CN2C[C@H]3C[C@H](Nc4ccc(-c5cc(F)cc(F)c5F)nn4)C[C@H]3C2)CC(C)(C)O1` [Compound 82, (3aR,5s,6aS)-2-((2,2,6,6-tetramethyltetrahydro-2H-pyran-4-yl)methyl)-N-(6-(2,3,5-trifluorophenyl)pyridazin-3-yl)octahydrocyclopenta[c]pyrrol-5-amine] as the compound, how does the “Human M4 Emin” value (Human M4) read?
The value was 2%.

What about the IC50 (Human M4) of the same compound?
Its IC50 is 62 nM.

With `[2H]C([2H])(C1CC(C)(C)OC(C)(C)C1)N1C[C@H]2C[C@H](Nc3ccc(-c4cc(F)cc(F)c4F)nn3)C[C@H]2C1` [Compound 83, (3aR,5s,6aS)-2-((2,2,6,6-tetramethyltetrahydro-2H-pyran-4-yl)methyl-d2)-N-(6-(2,3,5-trifluorophenyl)pyridazin-3-yl)octahydrocyclopenta[c]pyrrol-5-amine] as the compound, how does the “Human M4 Emin” value (Human M4) read?
Its value is 3%.

And the IC50 (Human M4)?
The IC50 was 56 nM.

Which “Human M4 Emin” value (Human M4) does the source give for `Fc1cc(F)c(F)c(-c2ccc(N[C@H]3C[C@@H]4CN(CCC5COC5)C[C@@H]4C3)nn2)c1` [Compound 84, (3aR,5s,6aS)-2-(2-(oxetan-3-yl)ethyl)-N-(6-(2,3,5-trifluorophenyl)pyridazin-3-yl)octahydrocyclopenta[c]pyrrol-5-amine] here?
The value was 4%.

And the IC50 (Human M4)?
Its IC50 is 72 nM.

With `[2H]C([2H])(CC1COC1)N1C[C@H]2C[C@H](Nc3ccc(-c4cc(F)cc(F)c4F)nn3)C[C@H]2C1` [Compound 85, (3aR,5s,6aS)-2-(2-(oxetan-3-yl)ethyl-1,1-d2)-N-(6-(2,3,5-trifluorophenyl)pyridazin-3-yl)octahydrocyclopenta[c]pyrrol-5-amine] as the compound, how does the “Human M4 Emin” value (Human M4) read?
The value was 4%.

And the IC50 (Human M4)?
The IC50 was 66 nM.

Which results are given for `Fc1cc(F)c(F)c(-c2ccc(N[C@H]3C[C@@H]4CN(CC5(F)CCCCC5)C[C@@H]4C3)nn2)c1` [Compound 87, (3aR,5s,6aS)-2-((1-fluorocyclohexyl)methyl)-N-(6-(2,3,5-trifluorophenyl)pyridazin-3-yl)octahydrocyclopenta[c]pyrrol-5-amine]?
Human M4 Emin (Human M4): 3%; IC50 (Human M4): 41 nM

For `Fc1cc(F)c(F)c(-c2ccc(N[C@H]3C[C@@H]4CN(Cc5ccccc5F)C[C@@H]4C3)nn2)c1` [Compound 89, (3aR,55,6aS)-2-(2-fluorobenzyl)-N-(6-(2,3,5-trifluoropheny)pyridazin-3-yl)octahydrocyclopenta[c]pyrrol-5-amine], which “Human M4 Emin” value (Human M4) is on record?
The value was 3%.

What about the IC50 (Human M4) of the same compound?
Its IC50 is 170 nM.

For `Fc1cc(F)c(F)c(-c2ccc(N[C@H]3C[C@@H]4CN(Cc5cccc(F)c5F)C[C@@H]4C3)nn2)c1` [Compound 90, (3aR,5s,6aS)-2-(2,3-difluorobenzyl)-N-(6-(2,3,5-trifluorophenyl)pyridazin-3-yl)octahydrocyclopenta[c]pyrrol-5-amine], which “Human M4 Emin” value (Human M4) is on record?
The value was 10%.

And the IC50 (Human M4)?
The IC50 was 960 nM.

Which results are given for `Fc1ccc(CN2C[C@H]3C[C@H](Nc4ccc(-c5cc(F)cc(F)c5F)nn4)C[C@H]3C2)c(F)c1` [Compound 91, (3aR,5s,6aS)-2-(2,4-difluorobenzyl)-N-(6-(2,3,5-trifluorophenyl)pyridazin-3-yl)octahydrocyclopenta[c]pyrrol-5-amine]?
Human M4 Emin (Human M4): 4%; IC50 (Human M4): 360 nM

Which “Human M4 Emin” value (Human M4) does the source give for `[2H]C([2H])(c1c(F)cccc1F)N1C[C@H]2C[C@H](Nc3ccc(-c4cc(F)cc(F)c4F)nn3)C[C@H]2C1` [Compound 92, (3aR,5s,6aS)-2-((2,6-difluorophenyl)methyl-d2)-N-(6-(2,3,5-trifluorophenyl)pyridazin-3-yl)octahydrocyclopenta[c]pyrrol-5-amine] here?
Its value is 7%.

And the IC50 (Human M4)?
The IC50 was 750 nM.

Which “Human M4 Emin” value (Human M4) does the source give for `[2H]C([2H])(C1CCOCC1(F)F)N1C[C@H]2C[C@H](Nc3ccc(-c4cc(F)cc(F)c4F)nn3)C[C@H]2C1` (stereo partly drawn) [Compound 93, (3aR,5s,6aS)-2-((3,3-difluorotetrahydro-2H-pyran-4-yl)methyl-d2)-N-(6-(2,3,5-trifluorophenyl)pyridazin-3-yl)octahydrocyclopenta[c]pyrrol-5-amine] here?
The value was 3%.

And the IC50 (Human M4)?
The IC50 was 3.9 nM.

For `Fc1ccc(Cl)c(-c2ccc(N[C@H]3C[C@@H]4CN(CC5CCOCC5)C[C@@H]4C3)nn2)c1` [reference compound], which efflux ratio at 120 min, 5 μM (P-gp) is on record?
The efflux ratio at 120 min, 5 μM was 14.

And the IC50 (cytochrome P450 2C9)?
Its IC50 is 150 nM.

What about the IC50 (cytochrome P450 2D6) of the same compound?
The IC50 was 5300 nM.

And the IC50 (cytochrome P450 1A2)?
The IC50 was 1100 nM.

And the IC50 (cytochrome P450 3A4)?
Its IC50 is 970 nM.

For `Fc1ccc(Cl)c(-c2ccc(N[C@H]3C[C@@H]4CN(Cc5ccccn5)C[C@@H]4C3)nn2)c1` [reference compound], which efflux ratio at 120 min, 5 μM (P-gp) is on record?
The efflux ratio at 120 min, 5 μM was 12.3.

And the IC50 (cytochrome P450 2C9)?
Its IC50 is 10300 nM.

And the IC50 (cytochrome P450 2D6)?
The IC50 was > 30000 nM.

What about the IC50 (cytochrome P450 1A2) of the same compound?
Its IC50 is > 30000 nM.

And the IC50 (cytochrome P450 3A4)?
The IC50 was 21700 nM.

Which “effect on catalepsy induced by haloperidol” value (mice; M4 KO mice) does the source give for `CN1[C@@H]2C[C@@H](OC(=O)[C@H](CO)c3ccccc3)C[C@H]1[C@@H]1O[C@@H]12` [scopolamine] here?
Its value is “ineffective”.

What about the “effect on catalepsy induced by haloperidol” value (mice; WT mice) of the same compound?
Its value is “completely reversed”.
